{"source": "paper PMC11249776", "about": "“Synthesis of Structural ADP-Ribose Analogues as Inhibitors for SARS-CoV-2 Macrodomain 1” (Organic Letters, 2024)", "biological_target": "T1, SARS-CoV-2 NSP3 macrodomain (Severe acute respiratory syndrome coronavirus 2, UniProt P0DTD1)", "T1 construct": "SARS-CoV-2 NSP3 macrodomain", "assay": "Mac1 HTRF assay (displacement of ADP-ribose conjugated biotin peptide)", "type": "binding", "conditions": "for Mac1 inhibition / affinity in words: qualitative statement", "data": [{"smiles": "COC1OC(COP(=O)(O)OP(=O)(O)OCC2OC(n3cnc4c(N)ncnc43)C(O)C2O)C(F)C1O", "note": "(stereo not shown) [Compound 8]", "values": [{"measurement": "IC50", "value": "> 200000", "unit": "nM"}, {"measurement": "Mac1 inhibition / affinity in words", "value": "drastically diminished binding affinity"}]}, {"smiles": "[N-]=[N+]=NC1OC(COP(=O)(O)OP(=O)(O)OCC2OC(n3cnc4c(N)ncnc43)C(O)C2O)C(O)C1OCc1ccccc1", "note": "(stereo not shown) [Compound 7]", "values": [{"measurement": "IC50", "value": "80000 ± 1700", "unit": "nM"}, {"measurement": "Mac1 inhibition / affinity in words", "value": "poor affinity"}]}, {"smiles": "CO[C@H]1O[C@H](COP(=O)(O)OP(=O)(O)OC[C@H]2O[C@@](C#N)(c3ccc4c(N)ncnn34)[C@H](O)[C@@H]2O)[C@@H](O)[C@H]1O", "note": "[Compound 10, α-O-methyl-NDPr]", "values": [{"measurement": "IC50", "value": "63 ± 5", "unit": "nM"}]}, {"smiles": "C#CC1OC(COP(=O)(O)OP(=O)(O)OCC2OC(n3cnc4c(N)ncnc43)C(O)C2O)C(O)C1O", "note": "(stereo not shown) [Compound 5]", "values": [{"measurement": "IC50", "value": "2400 ± 200", "unit": "nM"}]}, {"smiles": "COC1OC(COP(=O)(O)OP(=O)(O)OCC2OC(n3cnc4c(N)ncnc43)C(O)C2O)C(O)C1OCc1ccccc1", "note": "(stereo not shown) [Compound 6]", "values": [{"measurement": "IC50", "value": "> 200000", "unit": "nM"}, {"measurement": "Mac1 inhibition / affinity in words", "value": "poor affinity"}]}, {"smiles": "CON=C1C(COP(=O)(O)OP(=O)(O)OCC2OC(n3cnc4c(N)ncnc43)C(O)C2O)OC(OC)C1O", "note": "(stereo not shown) [Compound 9]", "values": [{"measurement": "IC50", "value": "> 200000", "unit": "nM"}]}, {"smiles": "N#C[C@@]1(c2ccc3c(N)ncnn23)O[C@H](COP(=O)(O)OP(=O)(O)OC[C@H]2O[C@H](N=[N+]=[N-])[C@H](O)[C@@H]2O)[C@@H](O)[C@H]1O", "note": "[Compound 11, α-N3-NDPr]", "values": [{"measurement": "IC50", "value": "30 ± 1.5", "unit": "nM"}]}]}
